PMC8162438, “Cancer cell-selective modulation of mitochondrial respiration and metabolism by potent organogold(III) dithiocarbamates” (Chemical Science, 2020)

Test system: MDA-MB-231
Assay: Whole-cell gold uptake by ICP-OES
Format: cell-based
Conditions: MDA-MB-231, 5 μM, 24 h
Method: We next performed cellular uptake studies to determine what percentage of the compounds were getting into the cell after treatment. Given that most therapeutic targets are localized receptors on the plasma membrane, quantifying the amount of gold compounds in cellular fractions and investigating their mode of uptake is crucial. For whole-cell uptake studies, MDA-MB-231 were treated with all 10 compounds and Auranofin at 5 μM for 24 h (Fig. 5A). Auranofin is the only gold-based therapeutic to be clinically approved, therefor we used this drug as a benchmark for comparison.[67] After treatment, the cells were washed with PBS, centrifuged, and digested with 0.5 mL of conc. […] Given that these complexes readily react with nucleophilic biological molecules and the lack of accumulation in the nuclear fraction, it is evident that the mechanism of action of this class of compounds is differentiated from the clinically available platinum agents. […]
positive control. When ready for analysis, the media were removed and the wells washed with 5 mL of PBS. […] The cells were resuspended in 2 mL of fresh media, counted, and reconstituted to a concentration of 1 x 10^5 cells/mL. […]
Compound 2a was prepared as a stock in DMSO and added to the respective wells at the specified concentrations of 0.1, 1, and 10 µM and treated for 12 h. […] The samples were cooled and stored at −20 °C until ready for use. […]

Row | SMILES | Intracellular uptake
1 | C[N+](C)=C1[S][Au-2]2([S]1)[c]1ccccc1Cc1cccc[n+]12.F[P-](F)(F)(F)(F)F (centres unmarked) [2a] | 3267 pmol per million cells
2 | C[N+](C)=C1[S][Au-2]2([S]1)[c]1ccccc1C(=O)c1cccc[n+]12.F[P-](F)(F)(F)(F)F (centres unmarked) [1a] | 3017 pmol per million cells
